A short description of data set [1]: In vitro test: antagonistic effect on leukotriene D4-induced contraction of excised guinea pig terminal ileum. The format is cell-based, guinea pig (male, Hartley strain). Particulars: guinea pig terminal ileum contraction, leukotriene D4 0.3 ng/ml, with atropine and mepyramine; for IC50: Cavia porcellus. As for the experimental part:
(§1) The antagonistic effect on leukotriene D4 of the present compounds [I] was tested by using the terminal ileum excised from a male guinea pig of the Hartley strain. Specifically, the terminal ileum was suspended, under aerated conditions, in 10 ml of Tyrode's solution containing 5×10^-7 M atropine and 1×10^-6 M mepyramine. Then, a test compound and leukotriene D4 (manufactured by Wako Junyaku Co., Ltd.) were successively added thereto with an interval of 30 seconds. After the lapse of 4 to 6 minutes, the degree of contraction of the ileum was measured with a Model TD-112S Isotonic Transducer (manufactured by Nippon Koden Co., Ltd.). The test compound and leukotriene D4 were used in such amounts as to give concentrations of 10^-9 to 10^-3 g/ml and 0.3 ng/ml, respectively.
(§2) The antagonistic effect on leukotriene D4 of each test compound was evaluated in terms of the concentration of the test compound at which the ileum contraction reaction induced by leukotriene D4 was inhibited by 50% (hereinafter referred to as IC50) Specifically, at varying concentrations of each test compound, the percent inhibition of contraction was calculated from the measured degree of contraction of the ileum according the following equation [formula] On the basis of the data thus obtained, a dose-response curve was prepared and used to determine the IC50 value of the test compound.

Data set [2] is described as follows: Toxicity test: acute toxicity (LD50) in mice. Particulars: mouse, in vivo. As for the experimental part: (§3) The acute toxicity (LD50) of several typical examples of the present compounds [I] was tested of 5-weeks-old male ddY strain mice and male SD straih rats. For this purpose, the compounds of Examples 2 and 4 were selected as typical examples. […] For rats, their LD50 values were not less than 4.0 g/kg when administered orally, and not less than 200 mg/kg when administered intravenously.

Data set [3] can be described thus: Toxicity test: acute toxicity (LD50) in rats. Conditions: rat, in vivo. The procedure:
as §3

For the next data set, the system named is leukotriene D4. The data set can be described thus: In vitro test: antagonistic effect on leukotriene D4-induced contraction of excised guinea pig terminal ileum. The format is cell-based, guinea pig (male, Hartley strain). Conditions: confirmatory experiment by the inventors; result in words. The procedure:
as §1, §2

≈ marks a conversion by molar mass, not a printed value. Structures can show the parent of a compound that is named as a salt.

The compound `CCCc1c(OCc2cc(Br)cn3c(=O)c(CCC(=O)O)cnc23)ccc(C(C)=O)c1O` [Example 5, 3-[9-(4-Acetyl-3-hydroxy-2-n-propylphenoxymethyl)-7-bromo-4-oxo-pyrido[1,2-a]pyrimidin-3-yl]propionic acid] had an IC50 in data set [1] of 0.3 µg/mL (≈ 0.596 µM).
Turning to `CCCc1c(OCc2cccn3c(=O)c(CC(=O)O)cnc23)ccc(C(C)=O)c1O` [Example 2, [9-(4-Acetyl-3-hydroxy-2-n-propylphenoxymethyl)-4-oxo-pyrido[1,2-a]pyrimidin-3-yl]acetic acid], in data set [1], the 50% inhibitory concentration (IC50) was 0.04 µg/mL (≈ 0.0975 µM). Moreover, the LD50 in data set [2] (intravenous) is at least 100 mg/kg; in data set [2] (oral), at least 4000 mg/kg; in data set [3] (intravenous), at least 200 mg/kg; in data set [3] (oral), at least 4000 mg/kg.
On to `CCCc1c(OCc2cccn3c(=O)c(CCC(=O)O)cnc23)ccc(C(C)=O)c1O` [Example 7, 3-[9-(4-Acetyl-3-hydroxy-2-n-propylphenoxymethyl)-4-oxo-pyrido[1,2-a]pyrimidin-3-yl]propionic acid potassium salt], for which the “Antagonistic effect on leukotriene D4 IC50” value in data set [1] (potassium salt) was 0.03 µg/mL.
For `CCCc1c(OCc2cccn3c(=O)c(CCC(=O)O)cnc23)ccc(C(C)=O)c1O` [Example 4, 3-[9-(4-Acetyl-3-hydroxy-2-n-propylphenoxymethyl)-4-oxo-pyrido[1,2-a]pyrimidin-3-yl]propionic acid], the “Antagonistic effect on leukotriene D4 IC50” value in data set [1] came to 0.01 µg/mL. Further, the LD50 in data set [2] (intravenous) is at least 100 mg/kg; in data set [2] (oral) it was at least 4000 mg/kg; in data set [3] (intravenous), at least 200 mg/kg; in data set [3] (oral) it was at least 4000 mg/kg.
With `CCCc1c(OCc2ccc3ncc(CCC(=O)O)c(=O)n3c2)ccc(C(C)=O)c1O` [Example 6, 3-[7-(4-acetyl-3-hydroxy-2-n-propylphenoxymethyl)-4-oxo-pyrido[1,2-a]pyrimidin-3-yl]propionic acid], 0.4 µg/mL (≈ 0.942 µM) corresponded to half-maximal inhibition in data set [1] (IC50).
Compound `CCCc1c(OCc2c(C)ccn3c(=O)c(CC(=O)O)cnc23)ccc(C(C)=O)c1O` [Example 3, [9-(4-Acetyl-3-hydroxy-2-n-propylphenoxymethyl)-8-methyl-4-oxo-pyrido[1,2-a]pyrimidin-3-yl]acetic acid] yielded an IC50 in data set [1] of 0.8 µg/mL (≈ 1.88 µM).
As to `CCCc1c(OCc2cccn3c(=O)c(C(=O)O)cnc23)ccc(C(C)=O)c1O` [Example 1, 9-(4-Acetyl-3-hydroxy-2-n-propylphenoxymethyl)-4-oxo-pyrido[1,2-a]pyrimidine-3-carboxylic acid], the concentration for half-maximal inhibition (IC50) in data set [1] turned out to be 0.03 µg/mL (≈ 0.0757 µM).
Regarding `O=C(O)c1cnc2c(OCc3ccccc3)cccn2c1=O` [Compound A, 9-Benzyloxy-4-oxo-pyrido[1,2-a]pyrimidine-3-carboxylic acid, reference compound], the half-maximal inhibitory concentration (IC50) in data set [1] is at least 10 µg/mL. Moreover, in the data set on leukotriene D4, the “antagonistic effect on SRS-A as represented by leukotriene D4” value was “no antagonistic effect on SRS-A”.

The values above are taken from US4798832A, “Pyrido[1,2-a]pyrimidine compounds, corresponding intermediates and use as SRS-A antagonists” (Tokyo Tanabe Company, Limited, priority 1986, dated 1989).
